# Laboratory results as given in ChEMBL document CHEMBL3507680, “University of Dundee, Gates Library screen for HepG2 cell viability”.
# Assay: Human HepG2 cell viability assay in 384 well format
# Format: toxicity, cell-based
# Design: dose 125 nL, time 70.5 hour; cytotoxicity at 70.5 h: concentration not given beside the values
# Conditions: HepG2 cells, read-out: Inhibition
row,Compound,cytotoxicity at 70.5 h [%]
1,O=C(NS(=O)(=O)c1ccccc1)c1ccccc1F,-4.29
2,COCCN(CC1CCCN(C2Cc3ccccc3C2)C1)C(=O)CSC (stereo unspecified),-2.79
3,Cc1cnc(C(=O)N2CCc3c(nc(-c4ccncc4)[nH]c3=O)C2)cn1,-3.01
4,CN(Cc1ccccc1)c1cnn(CC2CCCCO2)c(=O)c1 (stereo unspecified),-4.54
5,CCc1cnc(C)nc1N(C)CCCc1cnn(C)c1,-12.1
6,Cc1nc(CN2CCC(NS(C)(=O)=O)CC2)co1,-9.09
7,NCC1Cc2cc(F)cc(-c3cnccn3)c2O1 (stereo unspecified),-3.38
8,Cc1c(C(=O)N2CCC3(CCCN(CC4CC4)C3=O)C2)ccn1C (stereo unspecified),15.8
9,Nc1nc(CNc2ncnc3c2CCN(Cc2ccoc2)CC3)cs1,29
10,CC(C)Cc1nnc(SCC(=O)O)n1-c1ccc(F)cc1F,5.45
11,CN(C)C(C(=O)NCC1(C)COC1)c1cccc(F)c1 (stereo unspecified),-3.06
12,CCCc1cncnc1N1CCC2(CCC(=O)N(CCOC)C2)CC1,13.2
13,Cc1ccccc1C(CNc1ncnc2c1CCNCC2)N(C)C (stereo unspecified),5.24
14,O=C(NC1CCCN(CCCc2ccccc2)C1)c1ccncc1 (stereo unspecified),-2.32
15,CSc1ccccc1CN1C[C@@H]2CC[C@H](C1)N(CC1CC1)C2=O,26.6
16,CC(=O)N[C@@H]1Cc2ccccc2[C@H]1Nc1nnc(C2CC2)o1,-7.5
17,Cc1ccc(OCCN(C)C(=O)CCCN2CCCC2=O)c(C)c1,-5.15
18,CN(C)S(=O)(=O)NCc1cccnc1Oc1ccc(F)cc1F,-3.42
19,CN(C)C(=O)CN1CCc2onc(-c3ccccc3F)c2C1,48.8
20,COCc1cc(CNC(=O)c2c(C)cc(C)[nH]c2=O)n[nH]1,-1.97
21,CC(CCc1ccccc1)NC(=O)CN1CCOCC1 (stereo unspecified),-3.3
22,O=C(c1cn(CCN2CCCCC2)nn1)N1CCSCC1,-1.47
23,CCOCc1nc2c(c(N3CC=CC3)n1)CCN(C1CCOCC1)CC2,0.826

row,Compound,cytotoxicity at 70.5 h [%]
1,CCc1nc(N2CCN(c3ncccn3)CC2)c2cnn(C)c2n1,-5.59
2,Cc1nc(O)cc(C2CCCN(Cc3c(Cl)cncc3Cl)C2)n1 (stereo unspecified),-8.65
3,O=C(CCCn1nnc(-c2ccc(F)cc2)n1)N1CCOCC(CO)C1 (stereo unspecified),23.7
4,CC(Cn1cncn1)NCCN1CCc2ccccc21 (stereo unspecified),-5.52
5,O=C1C[C@H]2CC[C@@H](CN1)N2C(=O)CCc1ccsc1,-9.38
6,Cc1noc(C)c1CN1C[C@@H](C(=O)O)[C@H](C(C)C)C1,-10
7,Fc1ccc(C2CCCCN2Cc2cc(-c3ccccn3)no2)cc1 (stereo unspecified),17.8
8,CN(Cc1nc(C2CC2)no1)C(=O)c1cccc(CC2CCNCC2)c1,-5.09
9,CN(C)C(=O)NCc1cc2n(n1)CCCN(C[C@H]1[C@@H]3CNC[C@@H]31)C2,-0.846
10,COC(=O)c1sccc1S(=O)(=O)N1CCc2c(ncnc2N(C)C)C1,-1.11
11,CC(C)=Cc1c(-c2ccccc2)ncn1CCS(C)(=O)=O,7.25
12,COc1ccc(O)c(C(=O)NCC2CCCN(C3CCOCC3)C2)c1 (stereo unspecified),-10.8
13,Cn1ccnc1CN1CCC(c2nc3ccccc3n2C)CC1,28.7
14,CNCCCNc1nc(C2CCCC2)nc2c1cnn2C,2.51
15,Cc1nnc(CN2C[C@H]3CC[C@@H]2CN(C2Cc4ccccc4C2)C3)o1,4.16
16,Cc1ccc(N2CCN(C(=O)CCC(F)(F)F)C(C)C2)cc1 (stereo unspecified),-18.6
17,Cc1nn(CCNC(C)Cn2ccnc2)c(C)c1Cl (stereo unspecified),-1.29
18,CN1CCCN(S(=O)(=O)c2cccc(C(=O)N3CCCCCC3)c2)CC1,-7.86
19,O=C(c1coc(CN2CCN(c3ccccc3F)CC2)n1)N1CCCC1,5.68
20,CN1CCN(Cc2nnc(C3CCN(C4CCCCC4)CC3)n2C)CC1,-27.4
21,CN(CC1=CCCN(CCc2ccccn2)C1)C(=O)c1ccco1,-9.19
22,CN(CCc1noc(C2CC2)n1)C(=O)C1(N2CCCC2)CCCC1,-3.64
23,COC(=O)c1cccnc1N1CCC(Oc2cccc(F)c2)CC1,1.14

row,Compound,cytotoxicity at 70.5 h [%]
1,Cc1nc(C2CCN(CC(=O)NC3CC3)CC2)cc(N2CCOCC2)n1,-0.642
2,c1ncn(Cc2nnc(C3CCN(CC4CC4)CC3)n2C2CC2)n1,-15.3
3,CN(Cc1cnc(C(C)(C)C)nc1)Cc1nc2ccc(F)cc2[nH]1,-5.62
4,COc1ccc(CN2C[C@@H]3CC[C@H](C2)N(Cc2snnc2C)C3)cc1,49
5,NCCN1CCC(c2nnc(Cn3ccnc3)n2C2CC2)CC1,-3.91
6,CCCc1cnc(C)nc1N1CCC2(CC1)CNC(=O)O2,10.5
7,CC1(C)CNC(=O)c2nc(CCN3CCC(C(N)=O)CC3)[nH]c2C1,-11.8
8,O=C(c1ccc[nH]1)N1CCN(CC2CCOc3ccccc3C2)CC1 (stereo unspecified),16.4
9,CN(Cc1ccc(F)cc1)CC1(O)CCCN(CC(C)(C)C)C1=O (stereo unspecified),-6.42
10,CS(=O)(=O)NCc1cc2n(n1)CCCN(Cc1cccc(C#N)c1)C2,-9.28
11,Cc1cc(N2CCC(c3nnc(CN(C)C)n3C3CC3)CC2)ccn1,18.3
12,CCOc1ncccc1C(=O)N1CCCC(c2nccn2CCOC)C1 (stereo unspecified),-9.63
13,CCCS(=O)(=O)c1ncc(CN2CCC(CO)CC2)n1CC1CCCO1 (stereo unspecified),-4.07
14,N#Cc1ccccc1C(=O)N1C[C@H](CO)C[C@H](CN2CCCC2)C1,-8.82
15,CN(C)c1ccccc1C(=O)N1C[C@@H](CN2CCCCC2)[C@@H](CO)C1,-3.58
16,CN(C)C(=O)N1CCN(C(=O)C(c2ccccc2F)N(C)C)CC1 (stereo unspecified),-4.32
17,COCCCn1c(CN2CCCC(O)C2)cnc1S(=O)(=O)C1CCCC1 (stereo unspecified),-5.61
18,COCc1nc(CNC2CCSCC2)no1,-8.13
19,CCn1ncnc1C(C)NC(=O)C1CCN(C(=O)COC)CC1 (stereo unspecified),-8.09
20,COc1ccc(CN2CCC(O)CC2)c(OC)c1,-6.19
21,CCS(=O)(=O)c1ncc(CN(C)Cc2ccccn2)n1CCOC,-5.34
22,CCOCCn1nc(C)cc1C(=O)N1CCOCC(CO)C1 (stereo unspecified),12
23,COc1ccccc1OC1CCN(Cc2cnc(N(C)C)nc2)CC1,-7.45

row,Compound,cytotoxicity at 70.5 h [%]
1,CS(=O)(=O)N1CCC(Oc2ccc(C(=O)N3CCSCC3)cc2Cl)CC1,0.994
2,O=S(=O)(Cc1ccccc1)NCc1ccco1,-5.52
3,CCn1ccnc1CN1C[C@@H](CN2CCCC2)[C@@H](CO)C1,-0.818
4,CCc1nc(C)c([C@H]2CN(C)C[C@@H]2C(=O)NCCc2cnccn2)[nH]1,-5.77
5,Cc1cc(N2CCCCCC2)n2nc(C)c(C)c2n1,-4.52
6,O=C(CCc1cccnc1)N(Cc1ccsc1)CC1CCCO1 (stereo unspecified),-6.73
7,CC(C)NC(=O)[C@@H]1C[C@H](N)CN1C(=O)c1cc2ccccc2[nH]c1=O,-8.06
8,Cc1nonc1CC(=O)N1C[C@@H]2CC[C@H](C1)N(Cc1ccccc1)C2=O,8.97
9,c1cn(Cc2nnc(C3CCN(c4nccs4)CC3)n2C2CC2)cn1,-4.16
10,CC(C)c1cc(NCC(C)N2CCCC2)n2nccc2n1 (stereo unspecified),-10.1
11,CN(CCO)C[C@@H]1CN(C(=O)c2c(F)cccc2Cl)C[C@@H]1CO,-8.11
12,O=C(c1cccnc1)N1C[C@@H]2CC[C@H](C1)N(Cc1ncc[nH]1)C2,-7.7
13,Cc1cc(NCc2cc3n(n2)CCCN(S(C)(=O)=O)C3)ncn1,-5.23
14,CC(C)=CCN1C(=O)[C@H]2CC[C@@H]1CN(Cc1cccnc1N)C2,-4.57
15,O=C(CCc1cc2n(n1)CCCN(Cc1ccccc1F)C2)NC1CC1,0.504
16,Cc1cc2c(cc1C(=O)N1CC[C@H](CO)[C@@H](O)C1)OCCO2,-7.62
17,O=C(Cc1ccc2c(c1)OCO2)N1CCCN(c2ccccc2)CC1,-4.44
18,COc1cccc2c1OCC(C(=O)N1CCN(S(C)(=O)=O)CC1)C2 (stereo unspecified),20.3
19,Cc1ccc(C(=O)N2CCN(S(C)(=O)=O)CC2)cc1N1CCNC1=O,-1.5
20,O=C(c1cc(COc2ccc3c(c2)OCO3)[nH]n1)N1CCCC1,-5.85
21,CCn1c(CN(C)C)nnc1C1CCN(Cc2cccc(OC)c2)CC1,4.9
22,CN(C)Cc1ccc(C2CCCCN2C(=O)c2cccc(CO)n2)cc1 (stereo unspecified),23.6
23,Clc1ccccc1C1(c2ccnc(-c3ccncc3)n2)CCNCC1,-5.92

row,Compound,cytotoxicity at 70.5 h [%]
1,Cc1ccc([C@@H]2CN(C(=O)c3csc(C)n3)C[C@H]2NC(=O)C2CC2)cc1,-12.3
2,CCC(=O)N1CCc2[nH]cnc2C12CCN(C(=O)CCS(C)(=O)=O)CC2,-1.4
3,CN(Cc1cccc(O)c1)CC1CCCN(CCc2ccc(Cl)cc2)C1 (stereo unspecified),10.2
4,CN(C)CC(=O)N1CCCC2(CCC(=O)N(CCc3c[nH]cn3)C2)C1 (stereo unspecified),-14.8
5,COCc1cc(NCc2cc(F)ccc2F)n2nccc2n1,-0.226
6,CN(CCc1ccccc1)C1CCCN(Cc2nccn2C)C1 (stereo unspecified),-4.92
7,Cc1cc(N2CCN(Cc3nccn3C)CC2)cc(C)n1,18.4
8,CN(C)C(=O)CN1C[C@@H]2CC[C@H](C1)N(Cc1cccc(Cl)c1Cl)C2,7.51
9,Fc1ccccc1Cc1noc(CN2CCCC(CN3CCCC3)C2)n1 (stereo unspecified),-2.47
10,CCCN(CCO)C(=O)C1CCC(=O)N(CCc2ccc(Cl)cc2)C1 (stereo unspecified),-4.6
11,CSc1ccc(-c2nc(CN3CCC(NC(C)=O)C3)c(C)o2)cc1 (stereo unspecified),-1.58
12,CC(CN1CCOCC1)NCC1CCN(c2cnn(C)c(=O)c2)CC1 (stereo unspecified),-4.8
13,CC(C)CCc1noc(CN2CCCN(C(=O)c3ccco3)CC2)n1,-0.918
14,Cn1cccc1-c1cc(C(=O)N2CC(c3cccnc3)C2)[nH]n1,-5.83
15,CSc1ncccc1C(=O)N1C[C@H]2CC[C@@H]1CN(c1cnccn1)C2,-10.6
16,O=C1CC2(CCN(CCO)CC2)CN1Cc1cc(F)cc(F)c1,-7.72
17,COCCN(C)C[C@@H]1CN(C(=O)c2ccoc2)C[C@@H]1CO,-7.32
18,COc1ccc2c(c1)CCN(CCC(=O)O)CC2,12.3
19,OC(CNCc1ccccc1C(F)(F)F)c1ccccc1 (stereo unspecified),-5.57
